Results as given in ChEMBL document CHEMBL1157907, “Synthesis and anti-tumor activities of methyl 2-O-aryl-6-O-aryl'-D-glucopyranosides” (Bioorg Med Chem Lett, 2010).

Tests used:
MDA-MB-231 [1] = assay: Cytotoxicity against human MDA-MB-231 cells at 20 uM after 48 hrs by MTT assay; format: functional; settings: MDA-MB-231, 48 h
MCF7 [2] = assay: Cytotoxicity against human MCF7 cells at 20 uM after 48 hrs by MTT assay; format: functional; settings: MCF7, 48 h
MDA-MB-435 [3] = assay: Cytotoxicity against human MDA-MB-435 cells at 20 uM after 48 hrs by MTT assay; format: functional; settings: MDA-MB-435, 48 h
MDA-MB-231 [4] = assay: Cytotoxicity against human MDA-MB-231 cells after 48 hrs by MTT assay; format: functional, cell-based; settings: MDA-MB-231, 48 h
A549 [5] = assay: Cytotoxicity against human A549 cells after 48 hrs by MTT assay; format: functional, cell-based; settings: A549, 48 h
HeLa [6] = assay: Cytotoxicity against human HeLa cells after 48 hrs by MTT assay; format: functional, cell-based
MCF7 [7] = assay: Cytotoxicity against human MCF7 cells after 48 hrs by MTT assay; format: functional, cell-based; settings: MCF7, 48 h
MDA-MB-435 [8] = assay: Cytotoxicity against human MDA-MB-435 cells after 48 hrs by MTT assay; format: functional, cell-based; settings: MDA-MB-435, 48 h
MDA-MB-231 [9] = assay: Cytotoxicity against human MDA-MB-231 cells up to 50 uM after 48 hrs by MTT assay; format: functional, cell-based
HeLa [10] = assay: Cytotoxicity against human HeLa cells up to 50 uM after 48 hrs by MTT assay; format: functional, cell-based
A549 [11] = assay: Cytotoxicity against human A549 cells up to 50 uM after 48 hrs by MTT assay; format: functional, cell-based
MDA-MB-231 [12] = assay: Drug uptake in human MDA-MB-231 cells at 10 uM; format: ADME, cell-based; settings: mda-mb-231, 10 µM

SMILES | inhibition at 20 µM (MDA-MB-231 [1]) [%] | inhibition at 20 µM (MCF7 [2]) [%] | inhibition at 20 µM (MDA-MB-435 [3]) [%] | EC50 (MDA-MB-231 [4]) [µM] | EC50 (A549 [5]) [µM] | EC50 (HeLa [6]) [µM] | other results
CO[C@@H]1O[C@H](COc2ccccc2)[C@@H](O)[C@H](O)[C@H]1Oc1ccc2c(c1)-c1ccccc1S2(=O)=O | -16 | 7 | 0 | – | – | – | –
CO[C@H]1O[C@H](COc2cccc(C(C)C)c2)[C@@H](O)[C@H](O)[C@H]1Oc1ccc(OC2CCCCC2)cc1 | – | – | – | 38 | 30 | 28 | –
CO[C@@H]1O[C@H](COc2ccccc2C(C)C)[C@@H](O)[C@H](O)[C@H]1Oc1ccc(OC2CCCCC2)cc1 | – | – | – | 44 | 41 | 42 | –
CO[C@@H]1O[C@H](COc2ccc(OC3CCCCC3)cc2)[C@@H](O)[C@H](O)[C@H]1Oc1ccc(C(C)C)cc1 | – | – | – | 35 | 32 | 26 | –
CO[C@@H]1O[C@H](COc2ccc(OC3CCCCC3)cc2)[C@@H](O)[C@H](O)[C@H]1Oc1ccc(OC2CCCCC2)cc1 | – | – | – | 26 | 25 | 14 | –
CO[C@@H]1O[C@H](COc2ccccc2)[C@@H](O)[C@H](O)[C@H]1Oc1ccc(OC2CCCCC2)cc1 | -9 | -5 | 14 | – | – | – | –
CO[C@@H]1O[C@H](COc2ccc(-c3ccccc3)cc2)[C@@H](O)[C@H](O)[C@H]1Oc1cccc(C(C)C)c1 | – | – | – | 35 | 35 | 32 | –
CO[C@H]1O[C@H](COc2ccc(C3CCCCC3)cc2)[C@@H](O)[C@H](O)[C@H]1Oc1ccc2c(c1)CCCC2 | – | – | – | 25 | 17 | 29 | –
CO[C@@H]1O[C@H](COc2ccc(-c3ccccc3)cc2)[C@@H](O)[C@H](O)[C@H]1Oc1ccc(OC2CCCCC2)cc1 | 64 | 51 | 30 | 36 | – | – | EC50 (MCF7 [7]): 18 µM; EC50 (MDA-MB-435 [8]): 26 µM
COc1cc(OC)cc(OC[C@H]2O[C@H](OC)[C@H](Oc3ccc(OC4CCCCC4)cc3)[C@@H](O)[C@@H]2O)c1 | – | – | – | – | – | – | EC50 (MDA-MB-231 [9]): Not Active; EC50 (HeLa [10]): Not Active; EC50 (A549 [11]): Not Active
CO[C@H]1O[C@H](COc2ccc(C3CCCCC3)cc2)[C@@H](OCc2ccccc2)[C@H](OCc2ccccc2)[C@H]1Oc1ccc(OC2CCCCC2)cc1 | – | – | – | – | – | – | EC50 (MDA-MB-231 [9]): Not Active; EC50 (HeLa [10]): Not Active; EC50 (A549 [11]): Not Active
CO[C@@H]1O[C@H](COc2cccc(C(C)C)c2)[C@@H](O)[C@H](O)[C@H]1Oc1ccc(OC2CCCCC2)cc1 | – | – | – | 40 | 41 | 39 | –
COc1ccc(OC[C@H]2O[C@H](OC)[C@H](Oc3ccc(OC4CCCCC4)cc3)[C@@H](O)[C@@H]2O)cc1OC | – | – | – | – | – | – | EC50 (MDA-MB-231 [9]): Not Active; EC50 (HeLa [10]): Not Active; EC50 (A549 [11]): Not Active
CO[C@H]1O[C@H](COc2ccc(-c3ccccc3)cc2)[C@@H](O)[C@H](O)[C@H]1Oc1ccc(C(C)C)cc1 | – | – | – | 31 | 32 | 19 | –
CO[C@H]1O[C@H](COc2ccc3c(c2)CCCC3)[C@@H](O)[C@H](O)[C@H]1Oc1ccc(OC2CCCCC2)cc1 | 24 | 45 | 16 | 20 | – | – | EC50 (MCF7 [7]): 17 µM; EC50 (MDA-MB-435 [8]): 26 µM
CO[C@H]1O[C@H](COc2ccccc2)[C@@H](O)[C@H](O)[C@H]1Oc1ccc2c(c1)-c1ccccc1S2(=O)=O | 2 | 7 | 4 | – | – | – | –
CO[C@H]1O[C@H](COc2ccc(OC3CCCCC3)cc2)[C@@H](O)[C@H](O)[C@H]1Oc1ccc(C(C)C)cc1 | – | – | – | 25 | 27 | 18 | –
CO[C@H]1O[C@H](COc2ccc3c(c2)CCCC3)[C@@H](O)[C@H](O)[C@H]1Oc1ccc2c(c1)-c1ccccc1S2(=O)=O | 30 | 2 | 17 | – | – | – | –

SMILES | inhibition at 20 µM (MDA-MB-231 [1]) [%] | inhibition at 20 µM (MCF7 [2]) [%] | inhibition at 20 µM (MDA-MB-435 [3]) [%] | EC50 (MDA-MB-231 [4]) [µM] | EC50 (A549 [5]) [µM] | EC50 (HeLa [6]) [µM] | other results
CO[C@H]1O[C@H](COc2ccccc2)[C@@H](O)[C@H](O)[C@H]1Oc1ccc(OC2CCCCC2)cc1 | -11 | -9 | -8 | – | – | – | –
CO[C@H]1O[C@H](COc2ccc3c(c2)CCCC3)[C@@H](O)[C@H](O)[C@H]1Oc1cccc(C(C)C)c1 | – | – | – | – | 40 | 33 | EC50 (A549 [11]): Not Active
CO[C@H]1O[C@H](COc2ccc(-c3ccccc3)cc2)[C@@H](O)[C@H](O)[C@H]1Oc1ccccc1 | – | – | – | – | 36 | 33 | EC50 (A549 [11]): Not Active
CO[C@H]1O[C@H](COc2cccc3c2CCCC3)[C@@H](O)[C@H](O)[C@H]1Oc1ccc(OC2CCCCC2)cc1 | -8 | 3 | -1 | – | – | – | –
C=CCO[C@@H]1[C@@H](Oc2ccc(OC3CCCCC3)cc2)[C@@H](OC)O[C@H](COc2ccc(C3CCCCC3)cc2)[C@H]1OCC=C | – | – | – | – | – | – | EC50 (MDA-MB-231 [9]): Not Active; EC50 (HeLa [10]): Not Active; EC50 (A549 [11]): Not Active
CO[C@@H]1O[C@H](COc2ccc3c(c2)CCCC3)[C@@H](O)[C@H](O)[C@H]1Oc1ccc2c(c1)-c1ccccc1S2(=O)=O | 14 | 7 | -4 | – | – | – | –
COc1ccc(OC[C@H]2O[C@@H](OC)[C@H](Oc3ccc(OC4CCCCC4)cc3)[C@@H](O)[C@@H]2O)cc1OC | – | – | – | – | – | – | EC50 (MDA-MB-231 [9]): Not Active; EC50 (HeLa [10]): Not Active; EC50 (A549 [11]): Not Active
CO[C@H]1O[C@H](COc2ccc(-c3ccccc3)cc2)[C@@H](O)[C@H](O)[C@H]1Oc1ccc2c(c1)-c1ccccc1S2(=O)=O | 29 | 15 | 12 | – | – | – | –
CO[C@H]1O[C@H](COc2ccc(-c3ccccc3)cc2)[C@@H](O)[C@H](O)[C@H]1Oc1ccccc1C(C)C | – | – | – | 34 | 33 | 29 | –
CO[C@H]1O[C@H](COc2cccc3c2CCCC3)[C@@H](O)[C@H](O)[C@H]1Oc1ccc2c(c1)-c1ccccc1S2(=O)=O | -8 | 4 | -5 | – | – | – | –
CO[C@H]1O[C@H](COc2ccc(C3CCCCC3)cc2)[C@@H](OC)[C@H](OC)[C@H]1Oc1ccc(OC2CCCCC2)cc1 | – | – | – | – | – | – | EC50 (MDA-MB-231 [9]): Not Active; EC50 (HeLa [10]): Not Active; EC50 (A549 [11]): Not Active
CO[C@H]1O[C@H](COc2ccc(-c3ccccc3)cc2)[C@@H](O)[C@H](O)[C@H]1Oc1cccc(C(C)C)c1 | – | – | – | 30 | 32 | 35 | –
CO[C@@H]1O[C@H](COc2ccc3c(c2)CCCC3)[C@@H](O)[C@H](O)[C@H]1Oc1ccc(OC2CCCCC2)cc1 | 0 | 14 | 1 | – | – | – | –
CO[C@@H]1O[C@H](COc2ccc3c(c2)CCCC3)[C@@H](O)[C@H](O)[C@H]1Oc1cccc(C(C)C)c1 | – | – | – | – | – | – | EC50 (MDA-MB-231 [9]): Not Active; EC50 (HeLa [10]): Not Active; EC50 (A549 [11]): Not Active
CO[C@H]1O[C@H](COc2ccc(C3CCCCC3)cc2)[C@@H](O)[C@H](O)[C@H]1Oc1cccc2c1CCCC2 | – | – | – | 37 | 28 | 25 | –
CO[C@H]1O[C@H](COc2ccccc2C(C)C)[C@@H](O)[C@H](O)[C@H]1Oc1ccc(OC2CCCCC2)cc1 | – | – | – | 36 | 33 | 47 | –
CO[C@H]1O[C@H](COc2ccc(OC3CCCCC3)cc2)[C@@H](O)[C@H](O)[C@H]1Oc1ccc(OC2CCCCC2)cc1 | – | – | – | 20 | 18 | 14 | –
CO[C@H]1O[C@H](COc2ccc(C3CCCCC3)cc2)[C@@H](O)[C@H](O)[C@H]1Oc1ccc(OC2CCCCC2)cc1 | – | – | – | 14 | 12 | 10 | Drug uptake (MDA-MB-231 [12]): Not Active
